Test: In vitro nitric oxide release and content by nitrogen oxides analyzer (Monitor Labs Model 8440)
Format: physicochemical
Method: The nitric oxide content and kinetic release profile, shown in FIG. 2, of nitrosylcobalamin was determined in vitro using a nitrogen oxides analyzer (Monitor Labs Model 8440). The amount of NO-"loading" was determined by examining the cumulative NO release, characterized at pH 4.9, 32° C., during a time span of 675.5 hours. The total NO released was 4,610 nmol NO, 38% loading based on the theoretical maximum of 11,890 nmol. The first twenty hours of NO release was characterized in great detail, with data readings taken every 15 minutes for the first eight hours and every half hour thereafter, resulting in the production of 260 nmol NO. […] At pH 10.0, NO release was undetected even though the sample size was increased to 20.6 mg.

NO produced at pH 5.0 (5 mg sample, pH 5.0, 37° C., 86 hour time span): 95.0 nmol
NO produced at pH 6.0 (5 mg sample, pH 6.0, 37° C., 86 hour time span): 2.4 nmol
NO produced at pH 7.4 (5 mg sample, pH 7.4, 37° C., 86 hour time span): 1.05 nmol
kinetic order of the cumulative NO release profile (cumulative NO release, pH 4.9, 32° C., R^2 =0.9984): first order kinetics
calculated half life of NO release (first order fit of cumulative NO release, pH 4.9, 32° C.): 210 h
NO release in the first twenty hours (first twenty hours, pH 4.9, 32° C.): 260 nmol
NO loading, based on the theoretical maximum of 11,890 nmol (from cumulative NO release at pH 4.9, 32° C., 675.5 hours): 38%
total NO released (cumulative NO release) (pH 4.9, 32° C., time span of 675.5 hours): 4,610 nmol
NO release at pH 10.0 (pH 10.0, sample size 20.6 mg): undetected
Substance: nitrosylcobalamin

Reference: patent US5936082A, “Metallocorrinoids as biologically compatible carriers of pharmacological agents” (The University of Akron, priority 1997, dated 1999)
